Measurements from patent publication US20090093633A1, “Organic Compounds” (Novartis AG, priority 2006, published 2009).
Where a name gives a salt, the structure may show the parent alone.

molecular target: adenosine A2A receptor (Homo sapiens, UniProt P29274); test: adenosine A2A receptor agonist assay (method of Murphree et al, Molecular Pharmacology 61, 455-462 (2002)); assay type: binding; settings: method of L. J. Murphree et al, Mol. Pharmacol. 61, 455-462 (2002)
Source text: Compounds of formula I and their pharmaceutically acceptable salts are useful as pharmaceuticals. In particular, they activate the adenosine A2A receptor, i.e. they act as A2A receptor agonists.

Chain of adenosine A2A receptor (P29274 whole entry): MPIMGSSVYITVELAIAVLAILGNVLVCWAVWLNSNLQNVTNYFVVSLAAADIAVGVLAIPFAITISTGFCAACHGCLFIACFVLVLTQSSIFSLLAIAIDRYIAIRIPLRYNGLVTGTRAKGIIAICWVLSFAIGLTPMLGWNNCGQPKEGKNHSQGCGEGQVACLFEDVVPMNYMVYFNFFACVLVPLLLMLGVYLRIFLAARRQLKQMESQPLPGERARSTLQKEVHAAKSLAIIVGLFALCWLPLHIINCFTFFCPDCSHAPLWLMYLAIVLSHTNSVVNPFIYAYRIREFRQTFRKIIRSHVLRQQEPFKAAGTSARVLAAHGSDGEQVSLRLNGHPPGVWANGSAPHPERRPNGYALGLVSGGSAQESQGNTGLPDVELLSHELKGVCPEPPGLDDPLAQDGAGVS

Compound | Ki
Cc1cnn([C@H]2C[C@@H](n3cnc4c(NCC(c5ccccc5)c5ccccc5)nc(NCCc5cnc[nH]5)nc43)[C@H](O)[C@@H]2O)c1 [Example 4, (1R,2S,3R,5S)-3-{6-(2,2-Diphenyl-ethylamino)-2-[2-(3H-imidazol-4-yl)-ethylamino]-purin-9-yl}-5-(4-methyl-pyrazol-1-yl)-cyclopentane-1,2-diol] | 172 nM
Cc1cnn([C@H]2C[C@@H](n3cnc4c(N)nc(N[C@@H]5CCC[C@H]5OCc5ccccc5)nc43)[C@H](O)[C@@H]2O)c1 [Example 22, (1R,2S,3R,5S)-3-[6-Amino-2-((1R,2R)-2-benzyloxy-cyclopentylamino)-purin-9-yl]-5-(4-methyl-pyrazol-1-yl)-cyclopentane-1,2-diol] | 138 nM
CCCCC#Cc1nc(N)c2ncn([C@@H]3C[C@H](n4cc(CC)cn4)[C@@H](O)[C@H]3O)c2n1 [Example 37, (1R,2S,3R,5S)-3-(6-Amino-2-hex-1-ynyl-purin-9-yl)-5-(4-ethyl-pyrazol-1-yl)-cyclopentane-1,2-diol] | 121 nM
CCn1cnc(CCNc2nc(NCC(c3ccccc3)c3ccccc3)c3ncn([C@@H]4C[C@H](n5cc(CO)cn5)[C@@H](O)[C@H]4O)c3n2)c1 [Example 47, (1R,2S,3R,5S)-3-{6-(2,2-Diphenyl-ethylamino)-2-[2-(1-ethyl-1H-imidazol-4-yl)-ethylamino]-purin-9-yl}-5-(4-hydroxymethyl-pyrazol-1-yl)-cyclopentane-1,2-diol] | 10 nM
CCc1cnn([C@H]2C[C@@H](n3cnc4c(NCCc5ccccc5)nc(NCCc5cn(CC)cn5)nc43)[C@H](O)[C@@H]2O)c1 [Example 54, (1R,2S,3R,5S)-3-{2-[2-(1-Ethyl-1H-imidazol-4-yl)-ethylamino]-6-phenethylamino-purin-9-yl}-5-(4-ethyl-pyrazol-1-yl)-cyclopentane-1,2-diol] | 72 nM
O=C(N[C@@H]1CCNC1)c1nc(NCC(c2ccccc2)c2ccccc2)c2ncn([C@@H]3C[C@H](n4cc(CO)cn4)C(O)C3O)c2n1 (stereo partly drawn) [Example 64, 9-[(1R,4S)-2,3-Dihydroxy-4-(4-hydroxymethyl-pyrazol-1-yl)-cyclopentyl]-6-(2,2-diphenyl-ethylamino)-9H-purine-2-carboxylic acid (R)pyrrolidin-3-yl amide] | 49 nM
Cc1nnn([C@H]2C[C@@H](n3cnc4c(NCC(c5ccccc5)c5ccccc5)nc(N5CC[C@@H](NS(C)(=O)=O)C5)nc43)[C@H](O)[C@@H]2O)n1 [Example 67, N-{(R)-1-[9-[(1R,2S,3R,4S)-2,3-Dihydroxy-4-(5-methyl-tetrazol-2-yl)-cyclopentyl]-6-(2,2-diphenyl-ethylamino)-9H-purin-2-yl]pyrrolidin-3-yl}-methanesulfonamide] | 71 nM
O=C(NC1CCN(c2ccccn2)CC1)N[C@@H]1CCN(c2nc(NCC(c3ccccc3)c3ccccc3)c3ncn([C@@H]4C[C@H](n5cc(CO)cn5)[C@@H](O)[C@H]4O)c3n2)C1 [Example 77, 1-{(R)-1-[9-[(1R,2S,3R,4S)-2,3-Dihydroxy-4-(4-hydroxymethyl-pyrazol-1-yl)-cyclopentyl]-6-(2,2-diphenyl-ethylamino)-9H-purin-2-yl]-pyrrolidin-3-yl}-3-(3,4,5,6-tetrahydro-2H-[1,2′]bipyridinyl-4-yl)-urea trifluoroacetate] | 20 nM
O=C(NC1CCN(c2ccc(C(=O)O)cn2)CC1)N[C@@H]1CCN(c2nc(NCC(c3ccccc3)c3ccccc3)c3ncn([C@@H]4C[C@H](n5cc(CO)cn5)[C@@H](O)[C@H]4O)c3n2)C1 [Example 86, 4-(3-{(R)-1-[9-[(1R,2S,3R,4S)-2,3-Dihydroxy-4-(4-hydroxymethyl-pyrazol-1-yl)-cyclopentyl]-6-(2,2-diphenyl-ethylamino)-9H-purin-2-yl]-pyrrolidin-3-yl}-ureido)-3,4,5,6-tetrahydro-2H-[1,2′]bipyridinyl-5′-carboxylic acid trifluoroacetate] | 40 nM
CN(C)[C@@H]1CCN(c2nc(NCC(c3ccccc3)c3ccccc3)c3ncn([C@@H]4C[C@H](n5cc(CO)cn5)[C@@H](O)[C@H]4O)c3n2)C1 [Example 96, (1R,2S,3R,5S)-3-[2-((R)-3-Dimethylamino-pyrrolidin-1-yl)-6-(2,2-diphenyl-ethylamino)-purin-9-yl]-5-(4-hydroxymethyl-pyrazol-1-yl)-cyclopentane-1,2-diol] | 2 nM
CCc1cnn([C@H]2C[C@@H](n3cnc4c(NCC(c5ccccc5)c5ccccc5)nc(N5CC[C@@H](NC(=O)Nc6ccncc6)C5)nc43)[C@H](O)[C@@H]2O)n1 [Example 127, 1-((R)-1-{6-(2,2-Diphenyl-ethylamino)-9-[(1R,2S,3R,4S)-4-(4-ethyl-[1,2,3]triazol-2-yl)-2,3-dihydroxy-cyclopentyl]9H-purin-2-yl}-pyrrolidin-3-yl)-3-pyridin-4-yl-urea hydrochloride] | 3 nM

Continued by falling Ki, values first:

Ki | Compound
272 nM | NC1CCC(Nc2nc(NCC(c3ccccc3)c3ccccc3)c3ncn([C@@H]4C[C@H](n5cccn5)[C@@H](O)[C@H]4O)c3n2)CC1 (stereo partly drawn) [Example 12, (1R,2S,3R,5S)-3-[2-(4-Amino-cyclohexylamino)-6-(2,2-diphenyl-ethylamino)-purin-9-yl]-5-pyrazol-1-yl-cyclopentane-1,2-diol]
197 nM | Cc1cnn([C@H]2C[C@@H](n3cnc4c(NCC(c5ccccc5)c5ccccc5)nc(NC5CCC(N)CC5)nc43)[C@H](O)[C@@H]2O)c1 (stereo partly drawn) [Example 1, (1R,2S,3R,5S)-3-[2-(4-Amino-cyclohexylamino)-6-(2,2-diphenyl-ethylamino)-purin-9-yl]-5-(4-methyl-pyrazol-1-yl)-cyclopentane-1,2-diol trifluoroacetate]
67 nM | CCCCC#Cc1nc(N)c2ncn([C@@H]3C[C@H](n4cc(CO)cn4)[C@@H](O)[C@H]3O)c2n1 [Example 40, (1R,2S,3R,5S)-3-(6-Amino-2-hex-1-ynyl-purin-9-yl)-5-(4-hydroxymethyl-pyrazol-1-yl)-cyclopentane-1,2-diol]
17 nM | CCc1nnn([C@H]2C[C@@H](n3cnc4c(NCC(c5ccccc5)c5ccccc5)nc(N5CC[C@@H](NC(=O)NC6CCN(c7ccccn7)CC6)C5)nc43)[C@H](O)[C@@H]2O)n1 [Example 45, 1-((R)-1-{6-(2,2-Diphenyl-ethylamino)-9-[(1R,2S,3R,4S)-4-(5-ethyl-tetrazol-2-yl)-2,3-dihydroxy-cyclopentyl]-9H-purin-2-yl}-pyrrolidin-3-yl)-3-(3,4,5,6-tetrahydro-2H-[1,2′]bipyridinyl-4-yl)-urea]
6 nM | CCc1nnn([C@H]2C[C@@H](n3cnc4c(NCC(c5ccccc5)c5ccccc5)nc(N5CC[C@@H](NC(=O)NCc6ccnc7ccccc67)C5)nc43)[C@H](O)[C@@H]2O)n1 [Example 150, 1-((R)-1-{6-(2,2-Diphenyl-ethylamino)-9-[(1R,2S,3R,4S)-4-(5-ethyl-tetrazol-2-yl)-2,3-dihydroxy-cyclopentyl]-9H-purin-2-yl}-pyrrolidin-3-yl)-3 quinolin-4-ylmethyl-urea hydrochloride]
5 nM | CCc1nnn([C@H]2C[C@@H](n3cnc4c(NCC(c5ccc(O)cc5)c5ccc(O)cc5)nc(N5CC[C@@H](NC(=O)Nc6ccncc6)C5)nc43)[C@H](O)[C@@H]2O)n1 [Example 109, 1-((R)-1-{6-[2,2-Bis-(4-hydroxy-phenyl)-ethylamino]-9-[(1R,2S,3R,4S)-4-(5-ethyl-tetrazol-2-yl)-2,3-dihydroxy-cyclopentyl]-9H-purin-2-yl}-pyrrolidin-3-yl)-3-pyridin-4-yl-urea hydrochloride]
3 nM | CCc1nnn([C@H]2C[C@@H](n3cnc4c(NCC(c5ccccc5)c5ccccc5)nc(N5CC[C@@H](NC(=O)Nc6cccc(-c7nnn[nH]7)c6)C5)nc43)[C@H](O)[C@@H]2O)n1 [Example 157, 1-((R)-1-{6-(2,2-Diphenyl-ethylamino)-9-[(1R,2S,3R,4S)-4-(5-ethyl-tetrazol-2-yl)-2,3-dihydroxy-cyclopentyl]-9H-purin-2-yl}-pyrrolidin-3-yl)-3-[3-(1H-tetrazol-5-yl)-phenyl]-urea hydrochloride]
